The text below walks through data of patent US6716819B2, “Use of xylitol to reduce ionic strength and activate endogenous antimicrobials for prevention and treatment of infections” (University of Iowa Research Foundation, priority 2000, dated 2004).

The test system of test [1] is bacteria from the nasal surface. Kind of test: Growth of normal nasal flora from nasal swabs in M9 media. It counts as cell-based. As to conditions: M9 media with 100 mM xylitol, 72 hours at 37° C. The protocol:
(§1) FIGS. 5(A-G). Effect of xylitol on growth of different airway pathogens. A, B and C. Growth of P. aeruginosa (A), S. aureus, (B), and coagulase-negative Staphylococcus (C) were measured as O. D. M9 media alone is indicated by open triangle. Xylitol (closed circle), or succinate, mannitol, or sucrose (open circles), were added to M9 media at 100 mM as indicated. D. Nasal swabs were collected and cultured for 3 days in Lauria-Bertani media (open circles), in minimal M9 media (open squares), or in M9 media supplemented with 100 mM xylitol (closed circles). E, F and G. P. aeruginosa (E), S. aureus (F), and coagulase-negative Staphylococcus (G) were cultured in Lauria-Bertani media alone (open triangles), Lauria-Bertani media with 100 mM xylitol (closed circles), and Lauria-Bertani media containing tobramycin or levofloxacin (open circles).
To test the effect of xylitol on growth of normal nasal flora in a carbon-starved media, nasal swabs were obtained from 3 normal volunteers and the swabs were inoculated into M9 media alone, M9 with 100 mM xylitol, or Lauria-Bertani media. The media were incubated at 37° C. for 72 hours and the O.D. were recorded.
It was tested whether xylitol would support bacterial growth. P. aeruginosa were placed in M9 media, which lacks a carbon source. […] In contrast, there was no growth of P. aeruginosa when M9 media was supplemented with xylitol. […]

Test [2] relates to P. aeruginosa. Kind of test: Growth in carbon-starved M9 media (O.D.). The following applies: M9 media supplemented at 100 mM. It counts as cell-based. The protocol: as §1, with “Effect of xylitol on growth of different airway pathogens.” left out
(§2) To test the effect of xylitol on growth of different airway pathogens in a carbon-starved media, P. aeruginosa, S. aureus, and coagulase-negative Staphylococcus were grown overnight in Lauria-Bertani medium. The bacteria were then centrifuged and resuspended in M9 media containing either 100 mM succinate, mannitol, or sucrose, respectively, and grown overnight at 37° C. The bacteria were centrifuged and resuspended in M9 media alone. M9 media containing 100 mM xylitol, or 100 mM of the indicated metabolizable sugar, as positive control. The optical density (O.D.) was measured after 0, 1, 2, and 4 hours at 600 nm on a Beckman DU640 Spectrophotometer (Schaumburg, Ill.). To test the antibiotic effect of xylitol, P. aeruginosa, S. aureus, and coagulase-negative Staphylococcus were grown overnight in Lauria-Bertani medium. The bacteria were then centrifuged and resuspended in Lauria-Bertani media with and without 100 mM xylitol. As a positive control, antibiotics with specific activity to each of the bacteria were added to the media (40 μg/ml tobramycin or 40 μg/ml levofloxacin).

Test [3] concerns coagulase-negative Staphylococcus. Kind of test: Growth in carbon-starved M9 media (O.D.). It counts as cell-based. As to conditions: M9 media supplemented at 100 mM. The protocol: as §1, with “Effect of xylitol on growth of different airway pathogens.” left out
as §2

The conditions of test [4]: incorporated in chewing gum; cited from earlier work.

In the case of `OC[C@@H](O)[C@H](O)[C@@H](O)CO` [xylitol], the “growth of bacteria from nasal swabs” value in test [1] was “no growth”. Further, the “growth of P. aeruginosa” value in test [2] is “no growth”. In addition, the “growth of coagulase-negative Staphylococcus” value in test [3] is “failed to support growth”. In addition, the “effect on dental caries” value in test [4] is recorded as “prevent dental caries”.
